The assay has as its target T1, SlitBest1b (Spodoptera littoralis, UniProt I6YK90).
T1 construct: full open reading frame without stop codon in pCINeo/IRES-GFP, expressed transiently in CHO-K1 cells
T1 sequence (I6YK90 1-707): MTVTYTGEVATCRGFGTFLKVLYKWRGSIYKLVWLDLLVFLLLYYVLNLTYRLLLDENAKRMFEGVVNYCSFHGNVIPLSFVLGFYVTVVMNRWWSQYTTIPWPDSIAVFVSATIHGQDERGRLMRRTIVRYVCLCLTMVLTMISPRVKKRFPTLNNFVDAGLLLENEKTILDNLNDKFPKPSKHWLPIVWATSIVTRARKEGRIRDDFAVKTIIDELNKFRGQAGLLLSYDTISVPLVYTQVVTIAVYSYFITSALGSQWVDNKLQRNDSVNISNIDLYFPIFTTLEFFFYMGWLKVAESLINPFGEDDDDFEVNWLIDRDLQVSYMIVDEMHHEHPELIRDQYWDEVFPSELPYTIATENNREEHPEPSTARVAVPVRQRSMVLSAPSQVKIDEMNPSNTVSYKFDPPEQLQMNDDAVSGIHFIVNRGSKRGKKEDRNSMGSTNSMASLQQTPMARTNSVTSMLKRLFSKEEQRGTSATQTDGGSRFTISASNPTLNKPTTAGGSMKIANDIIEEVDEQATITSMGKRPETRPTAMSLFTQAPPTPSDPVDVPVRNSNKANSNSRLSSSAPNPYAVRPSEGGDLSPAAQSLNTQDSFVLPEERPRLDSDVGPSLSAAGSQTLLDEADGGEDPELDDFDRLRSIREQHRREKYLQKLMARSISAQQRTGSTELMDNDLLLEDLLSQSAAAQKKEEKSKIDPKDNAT
As to the kind of experiment: whole-cell patch clamp, steady-state Ca2+-activated Cl- current in transfected CHO-K1 cells. The assay is classed as cell-based. From the text: whole-cell patch clamp, steady-state Ca2+-activated Cl- current in transfected CHO-K1 cells on SlitBest1b
For orientation: The patch-clamp technique gives a direct electrical read-out from membranes.

Each structure is given as a SMILES string.

Usually inhibition stands for the relative decrease from the control value, in per cent. Turning to `O=C(O)c1cc([N+](=O)[O-])ccc1NCCCc1ccccc1` [NPPB, 5-nitro-2-(3-phenylpropylamino) benzoic acid], the inhibition at 100 µM came out at 101 ± 7.6%.

For the molecule `O=C(O)c1ccccc1Nc1cccc(C(F)(F)F)c1` [flufenamic acid], the inhibition at 100 µM amounted to 78.7 ± 8.2%.

For the molecule `O=C(O)c1cccnc1Nc1cccc(C(F)(F)F)c1` [niflumic acid], the inhibition at 300 µM came out at 65.1 ± 8.9%.
